Test results reported in patent EP1510220B1 (priority 1993, dated 1994).
pIC50: −log10 of the molar value.

How the values were obtained:
TGF-beta [1] = assay: ELISA for TGF-beta in medium conditioned on human EX cultures; format: cell-based; settings: 5 µM
Description: (§1) The total latent and active TGF-beta present was determined by a sandwich ELISA. Maxisorb 96-well ELISA plates (available from Gibco) were coated with neutralizing antiserum against TGF-beta (BDA19; available from R & D Systems) at 2 micrograms/cm^2 in phosphate buffered saline (PBS) overnight at room temperature. The plates were washed between each step with tris-buffered saline containing 0.1% Triton X-100 (available from Sigma Chemical Company). The plates were incubated with samples for 2 hours, with a second antibody to TGF-beta (BDA5; available from R & D Systems) at 0.1 micrograms/ml for 2 hours, anti-rabbit IgG peroxidase conjugated to antibody (available from Sigma Chemical Co.), made up according to manufacturer's instructions, for 15 minutes. Absorbances at 492 nm were converted into quantities of TGF-beta protein using a standard curve. Both conditioned media and standards were assayed in the presence of 10% FCS in DMEM. This assay was linear for TGF-beta concentrations in the range from 0.1 ng/ml to 20 ng/ml in the presence of 10% FCS in DMEM.
Cell counting, DNA synthesis assays and assays for total and active TGF-beta were performed as described in Example 7.

TGF-beta [2] = assay: Sandwich ELISA for total latent plus active TGF-beta, rat vascular smooth muscle cell conditioned medium; format: cell-based
Description: as §1

[3] = system: Rat vascular smooth muscle cells; assay: Proliferation of rat vascular smooth muscle cells by cell counting; format: cell-based
Description: Cell culture, DNA synthesis assay and cell counting. Rat vascular smooth muscle cells were cultured after enzymatic dispersion of the aortic media from 12-17 week old Wistar rats as described in Grainger et al., Biochem. J., 277: 145-151, 1991. When the cells reached confluence (after about 6 days) the cells were released with trypsin/EDTA (available from Gibco) and diluted 1:2 in Dulbecco's modification of Eagle's medium (DMEM; available from ICN/Flow) supplemented with 100 U/ml penicillin and 10% fetal calf serum (FCS). The cells were then replated on tissue culture plastic (available from ICN/Flow) at approximately 1 x 10^4 cells/cm^2. The cells were subcultured repeatedly in this way when confluence was attained (about every 4 days), and the cells were used between passages 6 and 12.
Cells were prepared for counting by hemocytometer from triplicate culture dishes as described in Grainger et al., Biochem. J., 277:145-151, 1991. Cells were also counted by direct microscopic observation of gridded culture dishes. The grids were scored into the plastic on the inner surface, so that the cells could not migrate into or out of the area being counted during the experiment. Cells in each of four squares in two separate wells were counted at each time point. All cell counting experiments were repeated on at least three separate cultures.
A stock solution of tamoxifen (5 mM; available from ICI Pharmaceuticals) was made up in 10% ethanol (EtOH) and diluted in DMEM and 10% FCS to give the final concentration. The effects of each tamoxifen concentration were compared with the effects observed in control wells containing the same final concentration of the ethanol vehicle. Recombinant TGF-beta (available from Amersham International) was dissolved in 25 mM Tris/Cl to give a 5 microgram/ml stock solution and sterile filtered through a Spinnex Tube (such as a Centrex Disposable Microfilter Unit available from Rainin Instrument Company, Inc., Woburn, MA). Neutralizing antiserum to TGF-beta (BDA19; available from R & D Systems) was reconstituted in sterile MilliQ water (available from Millipore Corporation, Bedford, MA). At 10 micrograms/ml, this antibody completely abolished the activity of 10 ng/ml recombinant TGF-beta on subcultured (8th passage) vascular smooth muscle cells.

[4] = system: Balloon traumatized pig arteries; settings: in vivo
[5] = system: B054 cells (baboon smooth muscle cells); assay: cells; format: cell-based

Molecule	proportion of total TGF-beta protein that was activated (TGF-beta [1]) [%]	total TGF-beta protein in conditioned medium (TGF-beta [1]) [ng/mL]	proportion of the TGF-beta present in active form (TGF-beta [2]; 50 micromolar, 96 hours, vehicle < 5%)	fold induction at 50 µM (TGF-beta [2]; Rattus norvegicus, 96 h, read-out: increase of total TGF-beta protein present)	cells that had divided by 64 hours ([3]; 33 micromolar)	time taken for 50% of the cells to divide after stimulation by serum ([3]; 33 micromolar, n=3, vehicle 35 +/-3 hours) [h]	onset of increase in cell number after serum stimulation ([3]; 33 micromolar, time lapse photomicroscopy)	rate of proliferation ([3]; 50 micromolar with 10 micrograms/ml neutralizing antiserum against TGF-beta, 10% FCS)	reduction of the increase in cell number ([3]; 50 micromolar, 96 hours following the addition of serum, n=3, 5760 min, 50 µM)	inhibition at 50 µM ([3]; Rattus norvegicus, 50 micromolar, 96 hours following the addition of serum, n=3, read-out: reduction of the increase in cell number) [%]	IC (maximal) ([3]; Rattus norvegicus, DMEM + 10% FCS, read-out: concentrations giving maximal inhibition of the rate of proliferation) [µM]	pIC50 ([3]; rat ED VSMC, read-out: half-maximal inhibition of proliferation)	lumen area in the test region compared to the normal control segment of the same artery [4]	luminal area compared to arteries treated with other test agents or controls [4]	toxicity to the vascular smooth muscle cells [4]	minimum effective dose (MED), DNA assay ([5]; 5 minute exposure) [µg/mL]	minimum effective dose (MED), DNA synthesis assay ([5]; 24 hour exposure) [µg/mL]
CC/C(=C(\c1ccccc1)c1ccc(OCCN(C)C)cc1)c1ccccc1 [tamoxifen, trans-2-[4-(1,2-diphenyl-1-butenyl)phenoxy]-N,N-dimethylethylamine]	55±5	6.0 ± 2.0	approximately 35%	~4	more than 90%	54 ± 2	no significant increase in cell number in the presence of tamoxifen until after 48 hours	proliferated at the same rate as control cells	66% +/-5.2	66	> 33	5.30 to 5.70	–	–	–	–	–
cytochalasin B	–	–	–	–	–	–	–	–	–	–	–	–	approximately two times	larger luminal area	appeared to be toxic	10	0.1
